Consider one molecule from paper PMC10649968, “Structural Basis of the Immunological Cross-Reactivity between Kiwi and Birch Pollen” (Foods, 2023).

In one assay the target is T1, Act d 8 (Actinidia deliciosa, UniProt D1YSM5).
T1 construct: gene ypr-10
T1 sequence (D1YSM5 1-157): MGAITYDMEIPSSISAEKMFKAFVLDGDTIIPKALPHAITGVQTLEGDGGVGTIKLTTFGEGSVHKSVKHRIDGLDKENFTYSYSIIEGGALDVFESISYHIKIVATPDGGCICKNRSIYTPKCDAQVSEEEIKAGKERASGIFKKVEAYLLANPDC
Put plainly: 1H-15N HSQC NMR titration (chemical shift perturbations). Format: binding.

The target of the next assay is T2, Act c 8 (Actinidia chinensis, UniProt D1YSM4).
T2 construct: gene ypr-10
T2 sequence (D1YSM4 1-159): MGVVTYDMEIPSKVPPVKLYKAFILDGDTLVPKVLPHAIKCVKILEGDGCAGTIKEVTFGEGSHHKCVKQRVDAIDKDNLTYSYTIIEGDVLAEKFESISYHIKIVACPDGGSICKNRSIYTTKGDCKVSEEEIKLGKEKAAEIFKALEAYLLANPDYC
The assay is described as above. Format: binding.

Turning to `Oc1cccc(O)c1O` [pyrogallol], the Kd at Act d 8 is 5 mM; at Act c 8, 30 mM.
